From US20230103330A1, “MECHANISTIC BIOMARKER FOR PREDICTING THE SURVIVAL OF PANCREATIC CANCER PATIENTS” (The Regents of the University of California, priority 2020, published 2023)

Columns and labels:
[1] = biological target: T1, PKCβII deleted pseudosubstrate (Rattus norvegicus, UniProt P68403, DEL19-36); assay: Immunoblot of PKC priming phosphorylations after phosphatase inhibitor; assay type: cell-based; conditions: COS-7 cells, 20 minutes prior to lysis
T1 construct: expressed in transfected cells; host or cells: COS-7
T1 sequence (P68403 with tags, fused parts or gaps isoform P68403-2 DEL19-36): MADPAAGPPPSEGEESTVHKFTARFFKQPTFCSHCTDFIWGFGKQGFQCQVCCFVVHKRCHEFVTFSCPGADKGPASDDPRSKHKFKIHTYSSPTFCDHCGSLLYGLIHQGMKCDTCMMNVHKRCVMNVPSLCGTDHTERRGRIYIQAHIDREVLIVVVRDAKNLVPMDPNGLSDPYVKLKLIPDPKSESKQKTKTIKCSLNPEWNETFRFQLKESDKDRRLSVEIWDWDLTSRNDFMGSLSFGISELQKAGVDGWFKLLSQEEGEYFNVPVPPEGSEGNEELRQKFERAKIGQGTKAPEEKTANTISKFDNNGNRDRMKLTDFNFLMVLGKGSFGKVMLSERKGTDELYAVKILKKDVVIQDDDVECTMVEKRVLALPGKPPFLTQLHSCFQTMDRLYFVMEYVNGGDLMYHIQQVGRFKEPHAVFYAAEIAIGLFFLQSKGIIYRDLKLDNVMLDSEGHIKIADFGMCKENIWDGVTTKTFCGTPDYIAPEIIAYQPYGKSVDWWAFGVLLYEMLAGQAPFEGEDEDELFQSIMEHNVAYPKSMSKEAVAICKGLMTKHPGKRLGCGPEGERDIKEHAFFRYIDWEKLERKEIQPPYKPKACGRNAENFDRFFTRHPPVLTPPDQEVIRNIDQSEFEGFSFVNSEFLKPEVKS
Protocol: FIG. 8. PKC APS Phosphorylation Is Not Regulated by a Calyculin-Sensitive Phosphatase. Western blot of lysates from COS-7 cells expressing RFP-tagged PKCβII wild-type (WT) or deleted pseudosubstrate (APS) and treated with DMSO (−) or Calyculin A (Cal, 100pM) and Go6976 (6pM) for 20 minutes prior to lysis. Immunoblots were probed with PKC phospho-specific antibodies against the activation loop (pThr^500), turn motif (pThr” ^1), or hydrophobic motif ([…]), total overexpressed PKC (HA), or phospho-serine substrate (pSer) as a positive control for Calyculin A.
Cells were lysed in PPHB: 50 mM NaPO4 (pH 7.5), 1% Triton X-100, 20 mM NaF, 1 mM Na4P207, 100 mM NaCl, 2 mM EDTA, 2 mM EGTA, 1 mM Na3VO4, 1 mM PMSF, […] leupeptin, 1 mM DTT, and […]. Phlpp1+/+ and Ph/pp1-/−MEFs were lysed in 50 mM Tris (pH 7.4), 1% Triton X-100, 50 mM NaF, 10 mM Na4P207, 100 mM NaCl, 5 mM EDTA, 1 mM Na3VO4, 1 mM PMSF, […] leupeptin, and […]. Triton-soluble fractions were analyzed by SDS-PAGE on 7% big gels to observe phosphorylation shift, transfer to PVDF membrane (Biorad), and western blotting via chemiluminescence SuperSignal West reagent (Thermo Fisher) on a FluorChem Q imaging system (ProteinSimple). In western blots, the asterisk (*) denotes the position of mature, phosphorylated PKC; whereas, the dash (−) indicates the position of unphosphorylated PKC. […]

PKCβII = biological target: T2, PKCβII (Rattus norvegicus, UniProt P68403); assay: C kinase activity reporter (CKAR) FRET assay of cellular PKC activity; assay type: cell-based; conditions: for activation of WT PKCa and PKCβII (CKAR): COS7 cells, agonist treatment
T2 construct: expressed in transfected cells; host or cells: COS7
T2 sequence (P68403 1-673 isoform P68403-2): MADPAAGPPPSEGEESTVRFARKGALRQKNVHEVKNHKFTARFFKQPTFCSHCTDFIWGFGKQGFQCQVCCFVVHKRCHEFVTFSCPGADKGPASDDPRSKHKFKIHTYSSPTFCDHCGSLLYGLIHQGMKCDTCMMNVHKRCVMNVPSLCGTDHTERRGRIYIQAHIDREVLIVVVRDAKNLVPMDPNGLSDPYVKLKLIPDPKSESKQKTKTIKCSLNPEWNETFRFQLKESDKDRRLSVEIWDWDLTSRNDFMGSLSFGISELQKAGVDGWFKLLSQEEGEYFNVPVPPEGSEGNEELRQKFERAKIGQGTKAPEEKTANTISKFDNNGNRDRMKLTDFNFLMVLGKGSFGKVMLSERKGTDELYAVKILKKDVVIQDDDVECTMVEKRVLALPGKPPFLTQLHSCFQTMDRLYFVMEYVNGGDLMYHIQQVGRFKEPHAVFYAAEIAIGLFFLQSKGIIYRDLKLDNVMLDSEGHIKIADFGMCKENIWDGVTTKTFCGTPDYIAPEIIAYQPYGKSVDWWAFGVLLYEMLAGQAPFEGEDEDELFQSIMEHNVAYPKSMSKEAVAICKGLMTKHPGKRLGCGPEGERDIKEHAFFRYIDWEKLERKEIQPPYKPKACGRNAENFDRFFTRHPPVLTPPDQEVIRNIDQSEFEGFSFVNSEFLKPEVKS
Protocol: (§1) For activity experiments COS7 cells were co-transfected with the indicated mCherry-tagged PKC construct and CKAR. For Kinameleon experiments, the indicated Kinameleon construct containing mYFP and mCFP was transfected alone. For translocation experiments, COS7 cells were co-transfected with the indicated mYFPtagged construct and plasma-membrane targeted mCFP at a ratio of 10:1. Baseline images were acquired every 15 s for 2 min prior to ligand addition. F6rster resonance energy transfer (FRET) ratios represent mean±SEM from at least three independent experiments.
(§2) All data were normalized to the baseline FRET ratio of each individual cell unless noted that absolute FRET ratio was plotted or traces were normalized to levels post-inhibitor addition. […] Every experiment contained an mCherry-transfected control to measure endogenous activity, and an mCherry-tagged WT (or deleted pseudosubstrate) PKC. Control traces are depicted as dotted lines: specifically, the endogenous trace in FIG. 1E and the deleted pseudosubstrate trace in FIGS. 2G and 31, were redrawn to serve as a point of reference in those figures (data were acquired and derived in the same experiments which generated all the data in FIGS. 1A-1E and FIGS. 2A-2G, respectively).

WT PKCβII = WT PKCβII (Rattus norvegicus, UniProt P68403); conditions: COS7 cells, PDBu 200 nM
WT PKCβII, sequence (P68403 1-673 isoform P68403-2): as above
Protocol: as §1, §2

Row | Compound | rescue of phosphorylation at the three priming sites of pseudosubstrate-deleted PKC [1] | CKAR phosphorylation (PKCβII; COS7 cells expressing WT PKC or turn motif mutant (T641A), PDBu 200 nM) | activation of WT PKCa and PKCβII (CKAR) (PKCβII) | FRET ratio of Kinameleon reporter (WT PKCβII)
1 | COC[C@@H]([C@H](O)[C@H](O)C(=O)NCC[C@H](C)c1nc(/C=C/C[C@@H]2O[C@]3(C[C@@H](O)[C@@H]2C)O[C@H]([C@H](C[C@H](O)[C@H](C)[C@H](O)[C@H](C)/C=C(C)/C(C)=C/C=C/C(C)=C\C#N)OC)[C@H](OP(=O)(O)O)C3(C)C)co1)N(C)C [Calyculin A] | could not be rescued |  |  | 
2 | CCCC(=O)O[C@@H]1[C@@H](C)[C@@]2(O)[C@@H](C=C(CO)C[C@]3(O)C(=O)C(C)=C[C@@H]23)[C@@H]2C(C)(C)[C@]12OC(=O)CCC [PDBu, Phorbol 12,13-dibutyrate] |  | robust increase in CKAR phosphorylation | activated | increase in FRET ratio
3 | O=c1ccn([C@@H]2O[C@H](COP(=O)(O)OP(=O)(O)OP(=O)(O)O)[C@@H](O)[C@H]2O)c(=O)[nH]1 [UTP, uridine triphosphate] |  |  | activated | 
